Legend:
Rat M4 = target: T1, Rat M4 (Rattus norvegicus, UniProt P08485); test: mAChR M4 cell-based functional calcium flux assay (rat M4/Gqi5/CHO cells); conditions: for Emin (rat M4): % ACh maximum at 30 μM; for IC50: decrease of the response to an EC80 concentration of acetylcholine
T1 construct: expressed in transfected cells; host or cells: CHO-K1 (ATCC), stably expressing M4 and Gqi5
T1 sequence (P08485 1-478): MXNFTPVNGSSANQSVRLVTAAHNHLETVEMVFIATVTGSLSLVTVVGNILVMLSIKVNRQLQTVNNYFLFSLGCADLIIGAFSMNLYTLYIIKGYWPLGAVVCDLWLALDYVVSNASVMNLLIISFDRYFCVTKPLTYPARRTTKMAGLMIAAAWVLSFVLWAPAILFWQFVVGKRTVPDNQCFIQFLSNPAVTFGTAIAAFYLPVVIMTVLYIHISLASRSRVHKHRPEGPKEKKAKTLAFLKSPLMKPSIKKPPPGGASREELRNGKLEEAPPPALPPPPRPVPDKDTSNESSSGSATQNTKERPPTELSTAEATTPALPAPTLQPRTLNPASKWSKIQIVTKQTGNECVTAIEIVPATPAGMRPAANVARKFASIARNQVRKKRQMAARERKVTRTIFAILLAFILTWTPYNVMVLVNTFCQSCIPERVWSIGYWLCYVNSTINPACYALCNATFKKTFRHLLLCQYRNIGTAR
Protocol: (§1) Human, rat, or mouse M4. cDNA, along with the chimeric G protein Gqi5, were transfected into Chinese hamster ovary (CHO-K1) cells purchased from the American Type Culture Collection using Lipofectamine2000. M4/Gqi5/CHO cells were grown in Ham's F-12 medium containing 10% heat-inactivated fetal bovine serum (FBS), 20 mM HEPES, 500 μg/mL G418 sulfate, and 200 μg/mL Hygromycin B.
(§2) For high throughput measurement of agonist-evoked increases in intracellular calcium, CHO-K1 cells stably expressing muscarinic receptors were plated in growth medium lacking G418 and hygromycin at 15,000 cells/20 μL/well in Greiner 384-well black-walled, tissue culture (TC)-treated, clear-bottom plates (VWR). Cells were incubated overnight at 37° C. and 5% CO2. The next day, cells were washed using an ELX 405 (BioTek) with assay buffer; the final volume was then aspirated to 20 μL. Next, 20 μL of a 2.3 μM stock of Fluo-4/acetoxymethyl ester (Invitrogen, Carlsbad, CA), prepared as a 2.3 mM stock in DMSO and mixed in a 1:1 ratio with 10% (w/v) Pluronic F-127 and diluted in assay buffer, was added to the wells and the cell plates were incubated for 50 min at 37° C. and 5% CO2. Dye was removed by washing with the ELX 405 and the final volume was aspirated to 20 μL. Compound master plates were formatted in a 10 point concentration-response curve (CRC) format (1:3 dilutions) in 100% DMSO with a starting concentration of 10 or 1 mM using a BRAVO liquid handler (Agilent). Test compound CRCs were then transferred to daughter plates (240 nL) using the Echo acoustic plate reformatter (Labcyte, Sunnyvale, CA) and then diluted into assay buffer (40 μL) to a 2× stock using a Thermo Fisher Combi (Thermo Fisher Scientific, Waltham, MA).
(§3) Calcium flux was measured using the Functional Drug Screening System (FDSS) 6000 or 7000 (Hamamatsu Corporation, Tokyo, Japan) as an increase in the fluorescent static ratio. Compounds were applied to cells (20 μL, 2×) using the automated system of the FDSS at 2 seconds into the protocol and the data were collected at 1 Hz. At 143 s, 10 μL of an EC20 concentration of the muscarinic receptor agonist acetylcholine was added (5×), followed by the addition of 12 μL of an EC80 concentration of acetylcholine at the 268 s time point (5×). Agonist activity was analyzed as a concentration-dependent increase in calcium mobilization upon compound addition. Positive allosteric modulator activity was analyzed as a concentration-dependent increase in the EC20 acetylcholine response. Antagonist activity was analyzed as a concentration-dependent decrease in the EC80 acetylcholine response; for the purposes of the tables herein, an IC50 (inhibitory concentration 50) was calculated as a concentration-dependent decrease of the response elicited by an EC80 concentration of acetylcholine. Concentration-response curves were generated using a four-parameter logistical equation in XLFit curve fitting software (IDBS, Bridgewater, NJ) for Excel (Microsoft, Redmond, WA) or Prism (GraphPad Software, Inc., San Diego, CA) or the Dotmatics software platform (Dotmatics, Bishop's Stortford, UK).
(§4) Compounds were synthesized as described above. Activity (IC50 and Emin) was determined in the mAChR M4 cell-based functional assay as described above and the data are shown in Table 2 and Table 3. The compound number corresponds to the compound numbers used in the examples and Tables 1 and 1.1.

Human M4 = target: T2, Human M4 (Homo sapiens, UniProt P08173); test: mAChR M4 cell-based functional calcium flux assay (human M4/Gqi5/CHO cells); conditions: for Emin (human M4): % ACh maximum at 30 μM; for IC50: decrease of the response to an EC80 concentration of acetylcholine
T2 construct: expressed in transfected cells; host or cells: CHO-K1 (ATCC), stably expressing M4 and Gqi5
T2 sequence (P08173 1-479): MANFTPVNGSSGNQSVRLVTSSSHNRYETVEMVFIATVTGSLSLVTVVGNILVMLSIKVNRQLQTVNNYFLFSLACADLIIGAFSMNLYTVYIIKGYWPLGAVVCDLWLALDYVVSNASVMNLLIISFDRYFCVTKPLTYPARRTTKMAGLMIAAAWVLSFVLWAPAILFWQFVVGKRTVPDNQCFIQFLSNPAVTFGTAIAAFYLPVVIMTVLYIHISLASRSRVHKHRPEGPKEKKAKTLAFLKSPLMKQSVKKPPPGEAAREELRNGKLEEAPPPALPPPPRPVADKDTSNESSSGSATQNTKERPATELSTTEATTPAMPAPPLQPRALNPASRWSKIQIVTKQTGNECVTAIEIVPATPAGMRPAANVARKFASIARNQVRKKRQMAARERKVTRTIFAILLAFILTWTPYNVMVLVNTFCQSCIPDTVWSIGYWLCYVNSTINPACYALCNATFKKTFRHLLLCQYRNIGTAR
Protocol: as §1, §2, §3, §4

SMILES | Emin (rat M4) (Rat M4) | IC50 (Rat M4) | Emin (human M4) (Human M4) | IC50 (Human M4)
Cc1ccncc1-c1ccc(NCC2CC23CCN(CCC(C)(C)C)CC3)nn1 (stereo not shown) [Compound 25, N-[[6-(3,3-dimethylbutyl)-6-azaspiro[2.5]octan-2-yl]methyl]-6-(4-methyl-3-pyridyl)pyridazin-3-amine] | 3.75% | 0.0778 µM | 2.93% | 0.00435 µM
Fc1ccc(Cl)c(-c2ccc(NC[C@@H]3CC34CCN(CC35CC6CC(CC(C6)C3)C5)CC4)nn2)c1 [Compound 115, N-[[(2R)-6-(1-adamantylmethyl)-6-azaspiro[2.5]octan-2-yl]methyl]-6-(2-chloro-5-fluoro-phenyl)pyridazin-3-amine] | 3% | 0.152 µM | 2% | 0.0698 µM
CC(=O)Nc1ccc(-c2ccc(NC[C@@H]3CC34CCN(Cc3ccc(F)cc3)CC4)nn2)cc1 [Compound 123, N-[4-[6-[[(2R)-6-[(4-fluorophenyl)methyl]-6-azaspiro[2.5]octan-2-yl]methylamino]pyridazin-3-yl]phenyl]acetamide] | 4% | 0.207 µM | 5% | 0.575 µM
CC(=O)Nc1ccc(-c2ccc(NC[C@@H]3CC34CCN(CC35CC6CC(CC(C6)C3)C5)CC4)nn2)cc1 [Compound 120, N-[4-[6-[[(2R)-6-(1-adamantylmethyl)-6-azaspiro[2.5]octan-2-yl]methylamino]pyridazin-3-yl]phenyl]acetamide] | 3% | 0.0357 µM | 4% | 0.0287 µM
Fc1ccc(Cl)c(-c2ccc(NCC3CC34CCN(CC3CCCOC3)CC4)nn2)c1 (stereo not shown) [Compound 15, 6-(2-chloro-5-fluoro-phenyl)-N-[[6-(tetrahydropyran-3-ylmethyl)-6-azaspiro[2.5]octan-2-yl]methyl]pyridazin-3-amine] | 4.24% | 0.519 µM | 3.08% | 0.00651 µM

Further lines, results first:

Emin (rat M4) (Rat M4) | IC50 (Rat M4) | Emin (human M4) (Human M4) | IC50 (Human M4) | SMILES
2.80% | 0.168 µM | 2.71% | 0.0749 µM | CC(C)(C)CCN1CCC2(CC1)CC2CNc1ccc(-c2ccc(F)c(F)c2)nn1 (stereo not shown) [Compound 32, 6-(3,4-difluorophenyl)-N-[[6-(3,3-dimethylbutyl)-6-azaspiro[2.5]octan-2-yl]methyl]pyridazin-3-amine]
3.33% | 0.199 µM | 2.34% | 0.023 µM | CC(C)(C)CCN1CCC2(CC1)CC2CNc1ccc(-c2cc(F)ccc2C#N)nn1 (stereo not shown) [Compound 43, 2-[6-[[[6-(3,3-dimethylbutyl)-6-azaspiro[2.5]octan-2-yl]methyl]amino]pyridazin-3-yl]-4-fluoro-benzonitrile]
3.14% | 0.0398 µM | 2.78% | 0.0172 µM | Cc1ccc(F)cc1-c1ccc(NCC2CC23CCN(CCC(C)(C)C)CC3)nn1 (stereo not shown) [Compound 29, N-[[6-(3,3-dimethylbutyl)-6-azaspiro[2.5]octan-2-yl]methyl]-6-(5-fluoro-2-methyl-phenyl)pyridazin-3-amine]
2.88% | 0.0862 µM | 2.24% | 0.0178 µM | CC(C)(C)CCN1CCC2(CC1)CC2CNc1ccc(-c2ccccc2)nn1 (stereo not shown) [Compound 34, N-[[6-(3,3-dimethylbutyl)-6-azaspiro[2.5]octan-2-yl]methyl]-6-phenyl-pyridazin-3-amine]
3.07% | 0.153 µM | 3.18% | 0.0213 µM | CC(C)(C)CCN1CCC2(CC1)CC2CNc1ccc(-c2cccc(F)c2)nn1 (stereo not shown) [Compound 27, N-[[6-(3,3-dimethylbutyl)-6-azaspiro[2.5]octan-2-yl]methyl]-6-(3-fluorophenyl)pyridazin-3-amine]
